Assay results published in patent US5610003A, “Two-equivalent magenta photographic couplers with activity-modifying ballasting groups” (Eastman Kodak Company, priority 1995, dated 1997).

Tests used:
[1] = Taft steric parameter Es of sterically hindering group; type: physicochemical; parameters: key: Taft steric parameter Es, referenced to H = 0 (more negative = bulkier)
Excerpt: Y is a monovalent organic group which sterically hinders leuco dye formation. The sterically hindering group is characterizedby a negative Es value greater than the absolute value of -1.5 and more preferably greater than the absolute value of -2.0. The Es value refers to the Taft steric parameter, referenced to H=O and defined as: […]
where k refers to the rate constant for the acid hydrolysis of esters of the type X--CH2 COOR and 1.24 is the hydrolysis rate of formate. A detailed description of this parameter is provided by S. H. Unger and C. Hansch, Prog. Phys. Org. Chem., 12, 91 (1976).

[2] = π value of R^4 group; type: physicochemical; parameters: key: π from partition coefficients of derivative (Px) vs parent (PH); conditions: substituent R^4
Procedure: R^4 is a monovalent organic group with a π value of at least 2.1. As used herein, the π value is determined by the equation: […]
where Px is the partition coefficient of a derivative and PH is the partition coefficient of the parent compound. A detailed description of the determination of the π value is provided by A. Leo, C. Hansch and D. Elkins, Chem. Rev., 71, 525 (1971).

Structure (SMILES)	Es Value for Sterically Hindering Group [1]	π Value for R^4 [2]
CCCCCCC(Oc1ccc(C(C)(C)CC(C)(C)C)cc1C(C)(C)CC(C)(C)C)C(=O)NC1=NN(c2c(Cl)cc(Cl)cc2Cl)C(=O)C1n1cccn1 (stereo not drawn) [Example 1]	-2.6	3.2
CCCCCCCCC(Oc1ccc(C(C)(C)CC(C)(C)C)cc1C(C)(C)CC(C)(C)C)C(=O)NC1=NN(c2c(Cl)cc(Cl)cc2Cl)C(=O)C1n1cccn1 (stereo not drawn) [Example 2]	-2.6	4.3
CCCCCCCCCCCCC(Oc1ccc(C(C)(C)CC(C)(C)C)cc1C(C)(C)CC(C)(C)C)C(=O)NC1=NN(c2c(Cl)cc(Cl)cc2Cl)C(=O)C1n1cccn1 (stereo not drawn) [Example 3]	-2.6	6.5
CCCCC(Oc1ccc(C(C)(C)CC)cc1C(C)(C)CC)C(=O)NC1=NN(c2c(Cl)cc(Cl)cc2Cl)C(=O)C1n1cccn1 (stereo not drawn) [Example 4]	-3.0	2.1
CCCCCCC(Oc1ccc(C(C)(C)CC)cc1C(C)(C)CC)C(=O)NC1=NN(c2c(Cl)cc(Cl)cc2Cl)C(=O)C1n1cccn1 (stereo not drawn) [Example 5]	-3.0	3.2
CCCCCCCCC(Oc1ccc(C(C)(C)CC)cc1C(C)(C)CC)C(=O)NC1=NN(c2c(Cl)cc(Cl)cc2Cl)C(=O)C1n1cccn1 (stereo not drawn) [Example 6]	-3.0	4.3
CCCCCCCCCCCCC(Oc1ccc(C(C)(C)CC)cc1C(C)(C)CC)C(=O)NC1=NN(c2c(Cl)cc(Cl)cc2Cl)C(=O)C1n1cccn1 (stereo not drawn) [Example 7]	-3.0	6.5
CCCCCCCCCCCCCCCCC(Oc1ccc(C(C)(C)CC)cc1C(C)(C)CC)C(=O)NC1=NN(c2c(Cl)cc(Cl)cc2Cl)C(=O)C1n1cccn1 (stereo not drawn) [Example 8]	-3.0	8.6
CCCCCCC(Oc1cc2c(cc1C(C)(C)CC(C)(C)C)OC(C)(C)CC2(C)C)C(=O)NC1=NN(c2c(Cl)cc(Cl)cc2Cl)C(=O)C1n1cccn1 (stereo not drawn) [Example 9]	-2.6	4.3
CCCCCCCCCCCCC(Oc1ccc(CCCCC)cc1CCCCC)C(=O)NC1=NN(c2c(Cl)cc(Cl)cc2Cl)C(=O)C1n1cccn1 (stereo not drawn) [Example 10]	-1.6	6.5
CCCCCCCCCCCCC(Oc1cc(C(C)(C)C)cc(C(C)(C)C)c1)C(=O)NC1=NN(c2c(Cl)cc(Cl)cc2Cl)C(=O)C1n1cccn1 (stereo not drawn) [Example 11]	-2.8	6.5
CCC(C)(C)c1ccc(Oc2ccc([N+](=O)[O-])cc2C(=O)NC2=NN(c3c(Cl)cc(Cl)cc3Cl)C(=O)C2n2cccn2)c(C(C)(C)CC)c1 (stereo not drawn) [Example 12]	-3.0	
CCCCCCCCCCCC(=O)Nc1ccc(Oc2ccc(C(C)(C)CC)cc2C(C)(C)CC)c(C(=O)NC2=NN(c3c(Cl)cc(Cl)cc3Cl)C(=O)C2n2cccn2)c1 (stereo not drawn) [Example 13]	-3.0	
CCCCCCCCCCC(Oc1ccc(S(=O)(=O)c2ccc(OCc3ccccc3)cc2)cc1)C(=O)Nc1ccc(Oc2ccc(C(C)(C)CC)cc2C(C)(C)CC)c(C(=O)NC2=NN(c3c(Cl)cc(Cl)cc3Cl)C(=O)C2n2cccn2)c1 (stereo not drawn) [Example 14]	-3.0	
CCC(C)(C)c1ccc(OCC(=O)Nc2ccc(Oc3ccc(C(C)(C)CC)cc3C(C)(C)CC)c(C(=O)NC3=NN(c4c(Cl)cc(Cl)cc4Cl)C(=O)C3n3cccn3)c2)c(C(C)(C)CC)c1 (stereo not drawn) [Example 15]	-3.0	
CCCCCCCCCCCCC(Oc1ccc(C)cc1C(C)(C)CC(C)(C)C)C(=O)NC1=NN(c2c(Cl)cc(Cl)cc2Cl)C(=O)C1n1cccn1 (stereo not drawn) [Example 16]	-2.6	6.5
CCCCCCCCCCCCC(Oc1ccc(C(C)(C)CC(C)(C)C)cc1)C(=O)NC1=NN(c2c(Cl)cc(Cl)cc2Cl)C(=O)C1n1cccn1 (stereo not drawn) [Example 17]	-2.6	6.5
